# Data from US9260504B2, “N- and C-terminal substituted antagonistic analogs of GH-RH” (University of Miami, priority 2008, dated 2016).
# How the values were obtained:
# Assay type in all cases: in vivo
# [1] = tested on: PC-3 human hormone-independent prostate cancer; test: PC-3 human prostate cancer xenografts in nude mice, Experiment 4; conditions: for Tumor growth after 28 days (%) / Tumor growth after 46 days (%) / Inhibition (%): 2 μg/day s.c.; for Inhibitory effect on PC-3 tumors compared with reference peptide JMR-132: 2 μg/day vs JMR-132 10 μg/day, after 46 days of treatment
# Experimental: Male nude mice were implanted s.c. with 3 mm^3 pieces of PC-3 human hormone-independent prostate cancer tissue on both flanks. When tumors reached a volume of approximately 50 mm^3, the mice were divided into 12 experimental groups with 8 to 10 animals in each group and received single daily injections for 28 days as follows: 1. Control (vehicle solution); 2. JMR-132 (10 μg/day s.c.); 3. Peptide 11113 (2 μg/day s.c.); 4. Peptide 11119 (2 μg/day s.c.); 5. Peptide 11209 (2 μg/day s.c.); 6. Peptide 11313 (2 μg/day s.c.); 7. Peptide 11408 (2 μg/day s.c.); 8. Peptide 11435 (2 μg/day s.c.); 9. Peptide 11457 (2 μg/day s.c.); 10. Peptide 11459 (2 μg/day s.c.); 11. Peptide 11469 (2 μg/day s.c.); 12. Peptide 11491 (2 μg/day s.c.).
# (§1) Tumor volumes were measured once a week. The experiment was ended on day 28 by sacrificing the mice under Isoflurane anesthesia. Resulting tumors were cleaned, weighed, and snap-frozen until further analyses. Statistical analyses of the measurement results were done by two-tailed t-test, p<0.05 being considered significant.
# All experimental details of Experiment 4 are the same as for Experiment 3, with the following difference. When tumors reached a volume of approximately 50 mm^3, the mice were divided into 11 experimental groups with 8 to 10 animals in each group and received single daily injections for 46 days as follows: 1. Control (vehicle solution); 2. JMR-132 (10 μg/day s.c.); 3. Peptide 11123 (2 μg/day s.c.); 4. Peptide 11125 (2 μg/day s.c.); 5. Peptide 11213 (2 μg/day s.c.); 6. Peptide 11433 (2 μg/day s.c.); 7. Peptide 11473 (2 μg/day s.c.); 8. Peptide 11485 (2 μg/day s.c.); 9. Peptide 11497 (2 μg/day s.c.); 10. Peptide 11499 (2 μg/day s.c.); 11. Peptide 11521 (2 μg/day s.c.). Tumor volumes were measured once a week. The experiment was ended on day 46 by sacrificing the mice under Isoflurane anesthesia. Resulting tumors were cleaned, weighed, and snap-frozen until further analyses. Statistical analyses of the measurement results were done by two-tailed t-test, p<0.05 being considered significant.
# [2] = tested on: PC-3 human hormone-independent prostate cancer; test: PC3 androgen-independent prostate cancer xenografts in nude mice (Example XIV)
# Experimental: Male nude mice were implanted s.c. with 3 mm^3 pieces of PC-3 human hormone-independent prostate cancer tissue on both flanks. When tumors reached a volume of approximately 50 mm^3, the mice were divided into 8 experimental groups with 8 to 10 animals in each group and received single daily injections for 28 days as follows: 1. Control (vehicle solution); 2. P-11513 2 μg/day; 3. P-11602 2 μg/day; 4. P-11602 1 μg/day; 5. P-11604 2 μg/day; 6. P-11606 2 μg/day; 7. P-11610 2 μg/day; 8. P-11610 1 μg/day.
# as §1
# [3] = tested on: HT human diffuse mixed B cell lymphoma cell line; test: HT human diffuse mixed B cell lymphoma xenografts in nude mice; conditions: 5 μg/day s.c.
# Experimental: The aim of this study was to find out the tumor inhibitor effect of the latest GHRH antagonists (Peptide 11602, Peptide 11604, Peptide 11606, and Peptide 11610) at the dose of 5 μg/day on HT human diffuse mixed B cell lymphoma cell line. Female nude mice were xenografted subcutaneously with approximately 3 mm^3 pieces of HT malignant tumor tissue. When tumors reached the mean volume of approximately 120 mm^3, the animals were randomly assigned into different groups. Tumor volumes and body weight were measured once a week. At the end of the experiment mice were anesthetized and sacrificed. Tumors were carefully excised, weighed and were stored at −80° C. until further investigation. Organs and tumor samples were preserved in 10% formaldehyde.
# [4] = tested on: Human ovarian cancer SKOV3 cells; test: SKOV3 ovarian cancer xenografts in nude mice; conditions: 5 μg/day s.c.
# Text: Human ovarian cancer SKOV3 cells growing exponentially were implanted info five female nude mice by subcutaneous (s.c.) injection of 10^7 cells in both flanks. Tumors That resulted after approximately 4 weeks in donor animals were then aseptically dissected and mechanically minced. Three mm^3 pieces of tumor tissue were transplanted subcutaneously into experimental animals with a trocar needle. When tumors reached an appropriate size (approximately 50 mm^3), mice were randomly divided into […]. The first was the control group, the second group was treated with daily s.c. injections of 5 μg P-11313, the third group was treated with daily s.c. injections of 5 μg P-11604, the fourth group was treated with daily s.c. injections of 5 μg P-11610. Tumor volume (length×width×height×0.5236) was measured every week and mean tumor volumes of each group were compared by Student's t-test. The study lasted 49 days. One week after end of treatment, mice were killed under anesthesia, tumors were snap frozen and stored at −70° C.
substance,measurement,setting,value
"[Oct^0-Tyr^1, D-Arg^2, Cpa^6, Ala^8, His^9, Tyr(Et)^10, His^11, Orn^12, Abu^15, His^20, Orn^21, Nle^27, D-Arg^28, Har^29-Ada^30]hGH-RH(1-29)NH2 [Peptide 11213]",Tumor growth after 28 days (%),[1],651%
same,Tumor growth after 46 days (%),[1],1144%
same,Inhibitory effect on PC-3 tumors compared with reference peptide JMR-132,[1],had a more potent inhibitory effect than reference peptide JMR-132
same,Inhibition (%),[1]; after 28 days,52.41%
same,Inhibition (%),[1]; after 46 days,65.65%
"[(Dca-Amc)^0-Tyr^1, D-Arg^2, Cpa^6, Ala^8, Har^9, Tyr(Me)^10, His^11, Orn^12, Orn^15, His^20, Orn^21, Nle^27, D-Arg^28, Har^29-Ada^30]hGH-RH(1-29)NH2 [Peptide 11521]",Tumor growth after 28 days (%),[1],877%
same,Tumor growth after 46 days (%),[1],2427%
same,Inhibition (%),[1]; after 28 days,35.86%
same,Inhibition (%),[1]; after 46 days,27.11%
"[PhAc^0-Tyr^1, D-Arg^2, (Phe(F)5)^6, Ala^8, Har^9, Tyr(Me)^10, His^11, Orn^12, Abu^15, His^20, Orn^21, Nle^27, D-Arg^28, Har^29-Ada^30]hGH-RH(1-29)NH2 [Peptide 11499]",Tumor growth after 28 days (%),[1],782%
same,Tumor growth after 46 days (%),[1],2178%
same,Inhibition (%),[1]; after 28 days,42.86%
same,Inhibition (%),[1]; after 46 days,34.59%
"[Dca^0-Tyr^1, D-Arg^2, Cpa^6, Ala^8, Har^9, Tyr(Me)^10, His^11, Orn^12, Abu^15, Har^20, Orn^21, Nle^27, D-Arg^28, Har^29]hGH-RH(1-29)NH2 [Peptide 11513]",TUMOR GROWTH (%),"[2]; 2 μg/day, day 0 (baseline)",100%
same,TUMOR GROWTH (%),"[2]; 2 μg/day, day 7",212.49%
same,Tumor inhibition (%),"[2]; 2 μg/day, day 7",35.86%
same,TUMOR GROWTH (%),"[2]; 2 μg/day, day 14",420.81%
same,Tumor inhibition (%),"[2]; 2 μg/day, day 14",28.79%
same,TUMOR GROWTH (%),"[2]; 2 μg/day, day 21",823.51%
same,Tumor inhibition (%),"[2]; 2 μg/day, day 21",30.80%
same,TUMOR GROWTH (%),"[2]; 2 μg/day, day 28",1420.09%
same,Tumor inhibition (%),"[2]; 2 μg/day, day 28",23.54%
"PhAc^0-Tyr^1, D-Arg^2, Cpa^6, Ala^8, Har^9, (Phe(F)5)^10, His^11, Orn^12, Abu^15, His^20, Orn^21, Nle^27, D-Arg^28, Har^29-Ada^30]hGH-RH(1-29)NH2 [Peptide 11610]",TUMOR GROWTH (%),"[2]; 1 μg/day, day 0 (baseline)",100%
same,TUMOR GROWTH (%),"[2]; 1 μg/day, day 7",195.49%
same,Tumor inhibition (%),"[2]; 1 μg/day, day 7",40.99%
same,TUMOR GROWTH (%),"[2]; 1 μg/day, day 14",302.30%
same,Tumor inhibition (%),"[2]; 1 μg/day, day 14",48.84%
same,TUMOR GROWTH (%),"[2]; 1 μg/day, day 21",549.94%
same,Tumor inhibition (%),"[2]; 1 μg/day, day 21",53.79%
same,TUMOR GROWTH (%),"[2]; 1 μg/day, day 28",740.17%
same,Tumor inhibition (%),"[2]; 1 μg/day, day 28",60.15%
same,TUMOR GROWTH (%),"[2]; 2 μg/day, day 0 (baseline)",100%
same,TUMOR GROWTH (%),"[2]; 2 μg/day, day 7",132.24%
same,Tumor inhibition (%),"[2]; 2 μg/day, day 7",60.08%
same,TUMOR GROWTH (%),"[2]; 2 μg/day, day 14",289.25%
same,Tumor inhibition (%),"[2]; 2 μg/day, day 14",51.05%
same,TUMOR GROWTH (%),"[2]; 2 μg/day, day 21",466.31%
same,Tumor inhibition (%),"[2]; 2 μg/day, day 21",60.82%
same,TUMOR GROWTH (%),"[2]; 2 μg/day, day 28",631.89%
same,Tumor inhibition (%),"[2]; 2 μg/day, day 28",65.98%
same,TUMOR GROWTH (%),[3]; day 1 (baseline),100%
same,Tumor inhibition (%),[3]; day 1 (baseline),0%
same,Tumor volume (mm^3),[3]; day 1 (baseline),90.42 mm^3
same,TUMOR GROWTH (%),[3]; day 7,183.36%
same,Tumor inhibition (%),[3]; day 7,40.01%
same,Tumor volume (mm^3),[3]; day 7,145.53 mm^3
same,TUMOR GROWTH (%),[3]; day 14,307.98%
same,Tumor inhibition (%),[3]; day 14,36.21%
same,Tumor volume (mm^3),[3]; day 14,194.57 mm^3
same,TUMOR GROWTH (%),[3]; day 21,361.18%
same,Tumor inhibition (%),[3]; day 21,53.78%
same,Tumor volume (mm^3),[3]; day 21,250.24 mm^3
same,TUMOR GROWTH (%),[3]; day 28,519.79%
same,Tumor inhibition (%),[3]; day 28,42.02%
same,Tumor volume (mm^3),[3]; day 28,428.99 mm^3
same,TU growth (%),[4]; day 0 (baseline),100%
same,TU growth (%),[4]; day 7,137.44%
same,TU inhibition (%),[4]; day 7,35.89%
same,TU growth (%),[4]; day 14,150.1%
same,TU inhibition (%),[4]; day 14,46.44%
same,TU growth (%),[4]; day 21,239.14%
same,TU inhibition (%),[4]; day 21,56.00%
same,TU growth (%),[4]; day 28,204.07%
same,TU inhibition (%),[4]; day 28,75.76%
same,TU growth (%),[4]; day 35,242.05%
same,TU inhibition (%),[4]; day 35,72.89%
same,TU growth (%),[4]; day 42,273.83%
same,TU inhibition (%),[4]; day 42,77.85%
same,TU growth (%),[4]; day 49,383.93%
same,TU inhibition (%),[4]; day 49,69.82%
"[(Ac-Amc)^0-Tyr^1, D-Arg^2, Cpa^6, Ala^8, Har^9, Tyr(Me)^10, His^11, Orn^12, Abu^15, His^20, Orn^21, Nle^27, D-Arg^28, Har^29-Ada^30]hGH-RH(1-29)NH2 [Peptide 11497]",Tumor growth after 28 days (%),[1],872%
same,Tumor growth after 46 days (%),[1],1658%
same,Inhibitory effect on PC-3 tumors compared with reference peptide JMR-132,[1],had a more potent inhibitory effect than reference peptide JMR-132
same,Inhibition (%),[1]; after 28 days,36.25%
same,Inhibition (%),[1]; after 46 days,50.22%
"[Nac^0-Tyr^1, D-Arg^2, Cpa^6, Ala^8, Har^9, Tyr(Me)^10, His^11, Orn^12, Abu^15, His^20, Orn^21, Nle^27, D-Arg^28, Har^29-AE2A^30] hGH-RH(1-29)NH2 [Peptide 11433]",Tumor growth after 28 days (%),[1],956%
same,Tumor growth after 46 days (%),[1],1890%
same,Inhibition (%),[1]; after 28 days,30.15%
same,Inhibition (%),[1]; after 46 days,43.23%
